Assay results: patent US12421210B2, “Fused bicyclic heterocycles as therapeutic agents” (NEW YORK UNIVERSITY, priority 2018, dated 2025)
Like-named read-outs stand apart in the source and are kept apart here.

Molecular target: human NAMPT enzyme (His-hNAMPT) (Homo sapiens (Human), UniProt P43490)
Experiment: NAMPT enzymatic inhibition assay (fluorescence, NADH product)
Assay type: biochemical
[1] = [HDB], read-out: NAMPT IC50 (μM) [HDB]
[2] = [BPS], read-out: NAMPT IC50 (μM) [BPS]

Chain of human NAMPT enzyme (His-hNAMPT) (P43490 whole entry): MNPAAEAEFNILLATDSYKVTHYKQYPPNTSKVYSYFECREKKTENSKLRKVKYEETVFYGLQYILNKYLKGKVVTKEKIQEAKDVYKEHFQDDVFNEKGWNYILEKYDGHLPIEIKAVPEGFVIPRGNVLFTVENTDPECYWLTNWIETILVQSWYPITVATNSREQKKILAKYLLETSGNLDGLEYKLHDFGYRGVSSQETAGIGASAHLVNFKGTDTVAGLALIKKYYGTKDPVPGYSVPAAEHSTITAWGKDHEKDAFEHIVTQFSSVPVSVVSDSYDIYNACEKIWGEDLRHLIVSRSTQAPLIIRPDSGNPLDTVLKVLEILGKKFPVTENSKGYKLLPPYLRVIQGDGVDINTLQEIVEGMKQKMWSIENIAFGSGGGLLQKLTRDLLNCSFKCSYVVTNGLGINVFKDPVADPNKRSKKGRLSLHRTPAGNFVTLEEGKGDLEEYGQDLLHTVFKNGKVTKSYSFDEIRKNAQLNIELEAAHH

Row | IC50 [1] | IC50 [2] | Structure (SMILES)
1 | 0.01 to 0.49 µM |  | CC(C)(C)OC(=O)N1C[C@@H]2[C@H](CCNC(=O)/C=C/c3cccnc3)[C@@H]2C1 [Example 279, (1R,5S,6r)-tert-butyl 6-(2-((E)-3-(pyridin-3-yl)acrylamido)ethyl)-3-azabicyclo[3.1.0]hexane-3-carboxylate]
2 |  | 0.01 to 0.49 µM | Cc1nc(C)c(C(=O)N2C[C@@H]3[C@@H](CCNC(=O)c4cc5ccncc5o4)[C@@H]3C2)o1 [Example 98, N-(2-((1R,5S,6s)-3-(2,4-dimethyloxazole-5-carbonyl)-3-azabicyclo[3.1.0]hexan-6-yl)ethyl)furo[2,3-c]pyridine-2-carboxamide]
3 |  | 1 to 29 µM | O=C(NCC[C@@H]1[C@H]2CN(C(=O)N3CCCC3)C[C@@H]12)c1ccc2nccn2c1 [Example 66, N-(2-((1R,5S,6s)-3-(pyrrolidine-1-carbonyl)-3-azabicyclo[3.1.0]hexan-6-yl)ethyl)imidazo[1,2-a]pyridine-6-carboxamide]
4 |  | 0.01 to 0.49 µM | O=C(NCC[C@@H]1[C@H]2CN(C(=O)c3ccccc3)C[C@@H]12)c1ccc2nccn2c1 [Example 63, N-(2-((1R,5S,6s)-3-benzoyl-3-azabicyclo[3.1.0]hexan-6-yl)ethyl)imidazo[1,2-a]pyridine-6-carboxamide]
5 |  | 0.01 to 0.49 µM | COc1cccc(N2C[C@@H]3[C@@H](CCNC(=O)c4cc5ccncc5o4)[C@@H]3C2)c1 [Example 130, N-(2-((1R,5S,6s)-3-(3-methoxyphenyl)-3-azabicyclo[3.1.0]hexan-6-yl)ethyl)furo[2,3-c]pyridine-2-carboxamide]
6 |  | 0.01 to 0.49 µM | CC(C)(C)OC(=O)N1C[C@@H]2[C@@H](CCNC(=O)N3Cc4ccccc4C3)[C@@H]2C1 [Example 15, (1R,5S,6s)-tert-butyl 6-(2-(isoindoline-2-carboxamido)ethyl)-3-azabicyclo[3.1.0]hexane-3-carboxylate]
7 | < 0.01 µM |  | O=C(/C=C/c1cccnc1)NCC[C@@H]1[C@H]2CN(c3ccc4ccncc4c3)C[C@@H]12 [Example 141, (E)-N-(2-((1R,5S,6s)-3-(isoquinolin-7-yl)-3-azabicyclo[3.1.0]hexan-6-yl)ethyl)-3-(pyridin-3-yl)acrylamide]
8 | < 0.01 µM |  | COC(=O)C(c1ccccc1)N1C[C@@H]2[C@@H](CCNC(=O)/C=C/c3cccnc3)[C@@H]2C1 (stereo partly drawn) [Example 309, methyl 2-phenyl-2-((1R,5S,6s)-6-(2-((E)-3-(pyridin-3-yl)acrylamido)ethyl)-3-azabicyclo[3.1.0]hexan-3-yl)acetate]
9 |  | 0.01 to 0.49 µM | CC1(OC(=O)N2C[C@@H]3[C@@H](CCNC(=O)c4cc5cnccc5[nH]4)[C@@H]3C2)COC1 [Example 36, (1R,5S,6s)-3-methyloxetan-3-yl 6-(2-(1H-pyrrolo[3,2-c]pyridine-2-carboxamido)ethyl)-3-azabicyclo[3.1.0]hexane-3-carboxylate]
10 | 0.01 to 0.49 µM |  | O=C(/C=C/c1cccnc1)NCC[C@@H]1[C@H]2CN(c3nc(Oc4ccccc4)ncc3F)C[C@@H]12 [Example 306, (E)-N-(2-((1R,5S,6s)-3-(5-fluoro-2-phenoxypyrimidin-4-yl)-3-azabicyclo[3.1.0]hexan-6-yl)ethyl)-3-(pyridin-3-yl)acrylamide]
11 |  | 1 to 29 µM | CC(C)(C)OC(=O)N1CCC2CC(CNC(=O)NCc3cccnc3)CC2C1 (centres unmarked) [Example 271, tert-butyl 6-((3-(pyridin-3-ylmethyl)ureido)methyl)hexahydro-1H-cyclopenta[c]pyridine-2(3H)-carboxylate]
12 |  | 0.01 to 0.49 µM | Nc1ccc(/C=C/C(=O)NCC[C@@H]2[C@H]3CN(C(=O)CC4CCOCC4)C[C@@H]23)cn1 [Example 94, (E)-3-(6-aminopyridin-3-yl)-N-(2-((1R,5S,6s)-3-(2-(tetrahydro-2H-pyran-4-yl)acetyl)-3-azabicyclo[3.1.0]hexan-6-yl)ethyl)acrylamide]
13 |  | 0.5 to 0.99 µM | CC(C)(C)OC(=O)N1C[C@H]2C[C@@H](CCNC(=O)COc3cccnc3)C[C@H]2C1 [Example 275, (3aR,5r,6aS)-tert-butyl 5-(2-(2-(pyridin-3-yloxy)acetamido)ethyl)hexahydrocyclopenta[c]pyrrole-2(1H)-carboxylate]
14 | 0.01 to 0.49 µM |  | O=C(NCC[C@@H]1[C@H]2CN(c3nc(Cl)ncc3F)C[C@@H]12)c1ccc2nccn2c1 [Example 203, N-(2-((1R,5S,6s)-3-(2-chloro-5-fluoropyrimidin-4-yl)-3-azabicyclo[3.1.0]hexan-6-yl)ethyl)imidazo[1,2-a]pyridine-6-carboxamide]
15 |  | 0.01 to 0.49 µM | Nc1ccc(/C=C/C(=O)NCC[C@@H]2[C@H]3CN(Cc4ccccc4)C(=O)[C@@H]23)cn1 (racemic) [Example 258, (E)-3-(6-aminopyridin-3-yl)-N-(2-((1R,5S,6S)-3-benzyl-2-oxo-3-azabicyclo[3.1.0]hexan-6-yl)ethyl)acrylamide and (E)-3-(6-aminopyridin-3-yl)-N-(2-((1S,5R,6R)-3-benzyl-2-oxo-3-azabicyclo[3.1.0]hexan-6-yl)ethyl)acrylamide]
16 |  | 0.01 to 0.49 µM | Nc1ccc(/C=C/C(=O)NCC[C@@H]2[C@H]3CN(C(=O)Nc4ccccc4)C[C@@H]23)cn1 [Example 31, (1R,5S,6s)-6-(2-((E)-3-(6-aminopyridin-3-yl)acrylamido)ethyl)-N-phenyl-3-azabicyclo[3.1.0]hexane-3-carboxamide]
17 |  | 0.01 to 0.49 µM | CCN(CC)C(=O)N1C[C@@H]2[C@@H](CCNC(=O)c3cc4ccncc4o3)[C@@H]2C1 [Example 60, N-(2-((1R,5S,6s)-3-(diethylcarbamoyl)-3-azabicyclo[3.1.0]hexan-6-yl)ethyl)furo[2,3-c]pyridine-2-carboxamide]
18 | < 0.01 µM |  | COc1ncc(F)c(N2C[C@@H]3[C@@H](CCNC(=O)/C=C/c4cccnc4)[C@@H]3C2)n1 [Example 297, (E)-N-(2-((1R,5S,6s)-3-(5-fluoro-2-methoxypyrimidin-4-yl)-3-azabicyclo[3.1.0]hexan-6-yl)ethyl)-3-(pyridin-3-yl)acrylamide]
19 | < 0.01 µM |  | O=C(/C=C/c1cccnc1)NCC[C@@H]1[C@H]2CN(c3nc(OC4CCCC4)ncc3F)C[C@@H]12 [Example 278, (E)-N-(2-((1R,5S,6s)-3-(2-(cyclopentyloxy)-5-fluoropyrimidin-4-yl)-3-azabicyclo[3.1.0]hexan-6-yl)ethyl)-3-(pyridin-3-yl)acrylamide]
20 | 0.01 to 0.49 µM |  | O=C(NCC[C@@H]1[C@H]2CN(c3ccccc3)C[C@@H]12)c1cc2cnccc2[nH]1 [Example 198, N-(2-((1R,5S,6s)-3-phenyl-3-azabicyclo[3.1.0]hexan-6-yl)ethyl)-1H-pyrrolo[3,2-c]pyridine-2-carboxamide]
21 | < 0.01 µM |  | NC(=O)COc1ncc(F)c(N2C[C@@H]3[C@@H](CCNC(=O)/C=C/c4cccnc4)[C@@H]3C2)n1 [Example 285, (E)-N-(2-((1R,5S,6s)-3-(2-(2-amino-2-oxoethoxy)-5-fluoropyrimidin-4-yl)-3-azabicyclo[3.1.0]hexan-6-yl)ethyl)-3-(pyridin-3-yl)acrylamide]
22 | < 0.01 µM |  | O=C(/C=C/c1cccnc1)NCC[C@@H]1[C@H]2CN(c3nc(OCc4ccccc4)ncc3F)C[C@@H]12 [Example 308, (E)-N-(2-((1R,5S,6s)-3-(2-(benzyloxy)-5-fluoropyrimidin-4-yl)-3-azabicyclo[3.1.0]hexan-6-yl)ethyl)-3-(pyridin-3-yl)acrylamide]

Row | Structure (SMILES) | IC50 [1] | IC50 [2]
23 | O=C(NCC[C@@H]1[C@H]2CN(c3nc(Cl)ncc3F)C[C@@H]12)c1ccc2ncnn2c1 [Example 217, N-(2-((1R,5S,6s)-3-(2-chloro-5-fluoropyrimidin-4-yl)-3-azabicyclo[3.1.0]hexan-6-yl)ethyl)-[1,2,4]triazolo[1,5-a]pyridine-6-carboxamide] | 0.01 to 0.49 µM | 
